Test results as given in US20100015576A1, “METHOD AND APPARATUS FOR DIAGNOSTIC AND TREATMENT USING HARD TISSUE OR MATERIAL MICROPERFORATION” (RejuveDent LLC, priority 2007, published 2010).
Blank lines part the entries; values can stand above or below the compound they belong to.

Experiments:
[1] = value used as input for the model calculation, cited from earlier work; for diffusion coefficient, peritubular: peritubular dentine; for diffusion coefficient, tubular: tubular dentine
[2] = in 14 hours; 33% hydrogen peroxide on micro-perforations
Description: One freshly extracted lower human incisor was used in the experiment. Immediately after extraction, the tooth was stored in a 0.1% w/w thymol solution at a temperature of +4-6° C. for 3 weeks.

[3] = In vivo whitening of teeth through laser microperforations

Structure (SMILES): O [water]
diffusion coefficient in intertubular dentine [1]: 1.74×10^−6 cm^2/sec | diffusion coefficient, peritubular [1]: 1.74×10^−7 cm^2/sec | diffusion coefficient, tubular [1]: 1.74×10^−5 cm^2/sec

pulp vitality (follow-up histopathology) ([3]; treated teeth, after extraction): confirmed the vitality of the pulp
Structure (SMILES): OO [hydrogen peroxide]
brown discoloration of the root surface [2]: completely bleached | diffusion coefficient in intertubular dentine [1]: 3.6×10^−7 cm^2/sec | diffusion coefficient, peritubular [1]: 3.6×10^−8 cm^2/sec | diffusion coefficient, tubular [1]: 3.6×10^−6 cm^2/sec | whitening effect (VITA scale) ([3]; Patient 1, 5 days after the procedure, peroxide 105 min at 37° C., 4 laser holes): one shade | whitening effect (VITA scale) ([3]; Patient 1, 7 days after the procedure, peroxide 105 min at 37° C., 4 laser holes): one more shade | whitening effect (VITA scale) ([3]; Patients 2 and 3, 1 day after the procedure, peroxide 70 min / 45 min at 37° C.): two shades (A3 to A1) | adverse effects on the oral mucosa ([3]; three patients): didn't observe any adverse effects
